ChEMBL document CHEMBL3421577, “Discovery and biological evaluation of tetrahydrothieno[2,3-c]pyridine derivatives as selective metabotropic glutamate receptor 1 antagonists for the potential treatment of neuropathic pain” (Eur J Med Chem, 2015)

How the values were obtained:
[1] = target: Substance-P receptor (Homo sapiens) (UniProt P25103); assay: Antagonist activity at NK1 receptor (unknown origin) at 10 uM relative to control
[2] = target: Substance-P receptor (Homo sapiens) (UniProt P25103); assay: Agonist activity at NK1 receptor (unknown origin) at 12.5 uM relative to control
[3] = target: 5-hydroxytryptamine receptor 2A (Homo sapiens) (UniProt P28223); assay: Agonist activity at 5HT2A receptor (unknown origin) at 12.5 uM relative to control
[4] = Drug excretion in Sprague-Dawley rat at 10 mg/kg, po by LC-MS/MS analysis; assay type: ADME, organism-based; parameters: dose 10 mg/kg, route oral; conditions: in vivo, read-out: Drug excretion
[5] = target: Cannabinoid receptor 1 (Homo sapiens) (UniProt P21554); assay: Agonist activity at CB1 receptor (unknown origin) at 12.5 uM relative to control
[6] = Ratio of drug level in brain to plasma in Sprague-Dawley rat at 10 mg/kg, iv measured at 2 hrs by LC-MS/MS analysis; assay type: ADME, organism-based; parameters: dose 10 mg/kg, route intravenous; conditions: read-out: BPR
[7] = target: Metabotropic glutamate receptor 1 (Homo sapiens, UniProt Q13255); assay: Antagonist activity at human mGluR1 expressed in human Chem-3 cells assessed as inhibition of L-glutamate-induced calcium release at 10 uM by calcium-5 reagent-based fluorescence assay relative to control; assay type: functional, cell-based
[8] = target: C-C chemokine receptor type 2 (Homo sapiens) (UniProt P41597); assay: Antagonist activity at CCR2B (unknown origin) at 10 uM relative to control
[9] = AUClast in Sprague-Dawley rat at 10 mg/kg, po by LC-MS/MS analysis; assay type: ADME, organism-based; parameters: time 0 - last, dose 10 mg/kg, route oral; conditions: plasma
[10] = Ratio of drug level in brain to plasma in Sprague-Dawley rat at 10 mg/kg, po measured at 2 hrs by LC-MS/MS analysis; assay type: ADME, organism-based; parameters: dose 10 mg/kg, route oral; conditions: read-out: BPR
[11] = target: 5-hydroxytryptamine receptor 2A (Homo sapiens) (UniProt P28223); assay: Antagonist activity at 5HT2A receptor (unknown origin) at 10 uM relative to control
[12] = Mean residence time in Sprague-Dawley rat at 10 mg/kg, iv by LC-MS/MS analysis; assay type: ADME, organism-based; parameters: dose 10 mg/kg, route intravenous; conditions: in vivo
[13] = target: B2 bradykinin receptor (Homo sapiens) (UniProt P30411); assay: Antagonist activity at BDKR2 (unknown origin) at 10 uM relative to control
[14] = target: Metabotropic glutamate receptor 2 (Homo sapiens) (UniProt Q14416); assay: Antagonist activity at mGlu2 receptor (unknown origin) at 10 uM relative to control
[15] = target: Metabotropic glutamate receptor 2 (Homo sapiens) (UniProt Q14416); assay: Agonist activity at mGlu2 receptor (unknown origin) at 12.5 uM relative to control
[16] = target: Muscarinic acetylcholine receptor M1 (Homo sapiens) (UniProt P11229); assay: Antagonist activity at M1 receptor (unknown origin) at 10 uM relative to control
[17] = target: Alpha-1A adrenergic receptor (Homo sapiens) (UniProt P35348); assay: Agonist activity at ADRA1A (unknown origin) at 12.5 uM relative to control
[18] = target: C-C chemokine receptor type 4 (Homo sapiens) (UniProt P51679); assay: Agonist activity at CCR4 (unknown origin) at 12.5 uM relative to control
[19] = target: Alpha-1A adrenergic receptor (Homo sapiens) (UniProt P35348); assay: Antagonist activity at ADRA1A (unknown origin) at 10 uM relative to control
[20] = target: C-X-C chemokine receptor type 4 (Homo sapiens) (UniProt P61073); assay: Antagonist activity at CXCR4 (unknown origin) at 10 uM relative to control
[21] = Plasma concentration in Sprague-Dawley rat at 10 mg/kg, iv measured at 8 hrs by LC-MS/MS analysis; assay type: ADME, organism-based; parameters: dose 10 mg/kg, route intravenous
[22] = AUC (0 to infinity) in Sprague-Dawley rat at 10 mg/kg, iv by LC-MS/MS analysis; assay type: ADME, organism-based; parameters: time infinity, dose 10 mg/kg, route intravenous; conditions: plasma
[23] = target: C-C chemokine receptor type 2 (Homo sapiens) (UniProt P41597); assay: Agonist activity at CCR2B (unknown origin) at 12.5 uM relative to control
[24] = Plasma concentration in Sprague-Dawley rat at 10 mg/kg, iv measured at 2 hrs by LC-MS/MS analysis; assay type: ADME, organism-based; parameters: dose 10 mg/kg, route intravenous
Rattus norvegicus [25] = assay: Analgesic activity in rat spinal nerve ligation model of neuropathic pain assessed as recovery from mechanical allodynia at 100 mg/kg, po administered on day 14 post ligation surgery measured after 3 hrs relative to control; assay type: functional
[26] = Tmax in Sprague-Dawley rat at 10 mg/kg, po by LC-MS/MS analysis; assay type: ADME, organism-based; parameters: dose 10 mg/kg, route oral; conditions: in vivo
[27] = target: C-X-C chemokine receptor type 2 (Homo sapiens) (UniProt P25025); assay: Antagonist activity at CXCR2 (unknown origin) at 10 uM relative to control
[28] = target: C-X-C chemokine receptor type 5 (Homo sapiens) (UniProt P32302); assay: Agonist activity at CXCR5 (unknown origin) at 12.5 uM relative to control
[29] = AUClast in Sprague-Dawley rat at 10 mg/kg, iv by LC-MS/MS analysis; assay type: ADME, organism-based; parameters: time 0 - last, dose 10 mg/kg, route intravenous; conditions: plasma
[30] = target: Cannabinoid receptor 1 (Homo sapiens) (UniProt P21554); assay: Antagonist activity at CB1 receptor (unknown origin) at 10 uM relative to control
[31] = Drug uptake in Sprague-Dawley rat brain at 10 mg/kg, iv measured at 2 hrs by LC-MS/MS analysis; assay type: ADME, organism-based; parameters: dose 10 mg/kg, route intravenous; conditions: read-out: Drug uptake
[32] = Apparent volume of distribution at steady state in Sprague-Dawley rat at 10 mg/kg, iv by LC-MS/MS analysis; assay type: ADME, organism-based; parameters: dose 10 mg/kg, route intravenous; conditions: in vivo, read-out: Vdss(app)
[33] = target: C-X-C chemokine receptor type 4 (Homo sapiens) (UniProt P61073); assay: Agonist activity at CXCR4 (unknown origin) at 12.5 uM relative to control
CYP3A4 = CYP3A4 (Homo sapiens, UniProt P08684); assay: Inhibition of recombinant human CYP3A4 assessed as remaining activity at 10 uM preincubated for 5 mins followed by substrate and NADP addition measured after 20 mins by fluorescence assay relative to control; assay type: ADME; conditions: read-out: Activity
[34] = Terminal half life in Sprague-Dawley rat at 10 mg/kg, po by LC-MS/MS analysis; assay type: ADME, organism-based; parameters: dose 10 mg/kg, route oral; conditions: in vivo, read-out: beta t1/2
[35] = Drug excretion in Sprague-Dawley rat at 10 mg/kg, iv by LC-MS/MS analysis; assay type: ADME, organism-based; parameters: dose 10 mg/kg, route intravenous; conditions: in vivo, read-out: Drug excretion
CYP2C19 = CYP2C19 (Homo sapiens, UniProt P33261); assay: Inhibition of recombinant human CYP2C19 assessed as remaining activity at 10 uM preincubated for 5 mins followed by substrate and NADP addition measured after 20 mins by fluorescence assay relative to control; assay type: ADME; conditions: read-out: Activity
[36] = Plasma concentration in Sprague-Dawley rat at 10 mg/kg, po measured at 2 hrs by LC-MS/MS analysis; assay type: ADME, organism-based; parameters: dose 10 mg/kg, route oral
[37] = target: C-X-C chemokine receptor type 2 (Homo sapiens) (UniProt P25025); assay: Agonist activity at CXCR2 (unknown origin) at 12.5 uM relative to control
[38] = Cmax in Sprague-Dawley rat at 10 mg/kg, po by LC-MS/MS analysis; assay type: ADME, organism-based; parameters: dose 10 mg/kg, route oral; conditions: in vivo
CYP2C9 = CYP2C9 (Homo sapiens, UniProt P11712); assay: Inhibition of recombinant human CYP2C9 assessed as remaining activity at 10 uM preincubated for 5 mins followed by substrate and NADP addition measured after 20 mins by fluorescence assay relative to control; assay type: ADME; conditions: read-out: Activity
Rattus norvegicus [39] = assay: Analgesic activity in rat spinal nerve ligation model of neuropathic pain assessed as recovery from cold allodynia at 100 mg/kg, po administered on day 14 post ligation surgery measured after 1 hr relative to control; assay type: functional

Substance-P receptor (Homo sapiens), sequence (P25103 whole entry): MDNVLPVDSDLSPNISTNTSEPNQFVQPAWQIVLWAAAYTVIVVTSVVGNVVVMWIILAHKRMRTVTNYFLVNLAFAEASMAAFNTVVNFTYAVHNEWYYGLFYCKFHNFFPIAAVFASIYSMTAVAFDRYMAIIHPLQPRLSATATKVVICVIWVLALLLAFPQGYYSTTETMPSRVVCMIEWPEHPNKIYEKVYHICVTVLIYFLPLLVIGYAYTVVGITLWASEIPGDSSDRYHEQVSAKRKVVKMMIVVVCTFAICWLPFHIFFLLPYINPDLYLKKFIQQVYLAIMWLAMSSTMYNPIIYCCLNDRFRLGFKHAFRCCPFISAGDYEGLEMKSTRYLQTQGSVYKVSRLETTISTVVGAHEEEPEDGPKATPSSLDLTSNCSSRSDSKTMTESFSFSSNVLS
Alpha-1A adrenergic receptor (Homo sapiens), sequence (P35348 whole entry): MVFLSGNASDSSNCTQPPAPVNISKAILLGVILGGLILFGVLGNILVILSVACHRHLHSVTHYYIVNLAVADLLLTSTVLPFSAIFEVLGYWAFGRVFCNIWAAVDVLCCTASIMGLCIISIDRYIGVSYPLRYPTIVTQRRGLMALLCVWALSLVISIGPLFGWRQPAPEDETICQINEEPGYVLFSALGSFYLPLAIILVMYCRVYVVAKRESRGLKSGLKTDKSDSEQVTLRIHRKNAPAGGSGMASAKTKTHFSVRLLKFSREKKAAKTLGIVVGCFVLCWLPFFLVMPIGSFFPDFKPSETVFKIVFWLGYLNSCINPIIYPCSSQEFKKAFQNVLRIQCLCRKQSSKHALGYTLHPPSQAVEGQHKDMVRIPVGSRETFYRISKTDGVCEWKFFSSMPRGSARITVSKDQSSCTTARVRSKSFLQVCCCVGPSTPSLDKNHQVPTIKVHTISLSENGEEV
5-hydroxytryptamine receptor 2A (Homo sapiens), sequence (P28223 whole entry): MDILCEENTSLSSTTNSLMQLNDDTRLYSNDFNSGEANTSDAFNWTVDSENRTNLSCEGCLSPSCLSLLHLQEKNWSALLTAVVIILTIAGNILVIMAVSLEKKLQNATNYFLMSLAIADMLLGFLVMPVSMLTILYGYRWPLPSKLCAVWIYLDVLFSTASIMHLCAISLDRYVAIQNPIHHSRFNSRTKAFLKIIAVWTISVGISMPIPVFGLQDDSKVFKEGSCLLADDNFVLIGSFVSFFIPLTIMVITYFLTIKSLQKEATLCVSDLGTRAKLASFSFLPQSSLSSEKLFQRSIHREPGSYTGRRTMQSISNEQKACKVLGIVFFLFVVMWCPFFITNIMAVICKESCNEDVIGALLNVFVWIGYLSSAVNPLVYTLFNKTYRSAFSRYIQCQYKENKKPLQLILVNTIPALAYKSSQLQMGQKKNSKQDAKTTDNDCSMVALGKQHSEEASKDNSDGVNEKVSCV
Metabotropic glutamate receptor 2 (Homo sapiens), sequence (Q14416 19-872 limits assumed): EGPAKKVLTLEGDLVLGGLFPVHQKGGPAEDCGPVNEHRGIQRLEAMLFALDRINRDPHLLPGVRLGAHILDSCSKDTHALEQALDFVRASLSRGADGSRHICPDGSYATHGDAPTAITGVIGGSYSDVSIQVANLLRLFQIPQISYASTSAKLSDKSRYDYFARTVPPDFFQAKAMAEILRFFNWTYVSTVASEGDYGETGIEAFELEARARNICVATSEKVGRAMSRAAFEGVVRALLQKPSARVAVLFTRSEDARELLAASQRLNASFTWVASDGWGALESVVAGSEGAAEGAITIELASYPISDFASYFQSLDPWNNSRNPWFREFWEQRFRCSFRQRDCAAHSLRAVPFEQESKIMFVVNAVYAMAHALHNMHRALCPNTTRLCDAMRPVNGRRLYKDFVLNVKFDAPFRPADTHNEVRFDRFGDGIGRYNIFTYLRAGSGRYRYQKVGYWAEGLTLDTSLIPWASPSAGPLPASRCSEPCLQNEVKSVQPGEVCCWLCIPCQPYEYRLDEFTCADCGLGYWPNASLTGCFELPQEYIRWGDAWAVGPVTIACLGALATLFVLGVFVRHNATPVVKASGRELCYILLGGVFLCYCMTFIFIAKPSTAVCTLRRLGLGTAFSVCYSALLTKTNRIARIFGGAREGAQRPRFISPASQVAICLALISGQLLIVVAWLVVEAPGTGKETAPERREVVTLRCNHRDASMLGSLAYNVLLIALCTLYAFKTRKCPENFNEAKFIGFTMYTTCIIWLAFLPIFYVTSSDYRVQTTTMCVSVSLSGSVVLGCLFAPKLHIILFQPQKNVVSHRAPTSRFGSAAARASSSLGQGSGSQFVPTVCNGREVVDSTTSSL
C-X-C chemokine receptor type 4 (Homo sapiens), sequence (P61073 whole entry): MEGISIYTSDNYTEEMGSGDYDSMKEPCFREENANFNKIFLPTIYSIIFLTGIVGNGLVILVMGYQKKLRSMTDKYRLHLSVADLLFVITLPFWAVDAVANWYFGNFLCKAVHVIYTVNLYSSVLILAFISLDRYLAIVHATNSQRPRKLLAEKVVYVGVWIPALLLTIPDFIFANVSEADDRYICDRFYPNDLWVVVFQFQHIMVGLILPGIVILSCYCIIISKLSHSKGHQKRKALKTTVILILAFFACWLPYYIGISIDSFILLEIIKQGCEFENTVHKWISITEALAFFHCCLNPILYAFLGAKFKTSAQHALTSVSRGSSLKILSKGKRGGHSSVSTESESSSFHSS
Cannabinoid receptor 1 (Homo sapiens), sequence (P21554 whole entry): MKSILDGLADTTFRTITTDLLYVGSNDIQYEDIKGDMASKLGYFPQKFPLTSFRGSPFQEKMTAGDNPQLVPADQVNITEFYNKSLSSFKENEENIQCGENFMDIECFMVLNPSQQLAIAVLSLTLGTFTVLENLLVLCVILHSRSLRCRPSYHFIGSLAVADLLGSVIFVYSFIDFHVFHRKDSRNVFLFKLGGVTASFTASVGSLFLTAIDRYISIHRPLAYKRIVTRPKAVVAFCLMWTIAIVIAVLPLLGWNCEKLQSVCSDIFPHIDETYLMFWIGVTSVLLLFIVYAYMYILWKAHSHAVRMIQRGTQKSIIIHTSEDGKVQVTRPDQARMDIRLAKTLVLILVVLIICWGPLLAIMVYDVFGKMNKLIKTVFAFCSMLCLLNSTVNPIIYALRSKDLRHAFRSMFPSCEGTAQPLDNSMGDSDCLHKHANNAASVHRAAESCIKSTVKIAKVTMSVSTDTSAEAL
C-C chemokine receptor type 2 (Homo sapiens), sequence (P41597 whole entry, looked up): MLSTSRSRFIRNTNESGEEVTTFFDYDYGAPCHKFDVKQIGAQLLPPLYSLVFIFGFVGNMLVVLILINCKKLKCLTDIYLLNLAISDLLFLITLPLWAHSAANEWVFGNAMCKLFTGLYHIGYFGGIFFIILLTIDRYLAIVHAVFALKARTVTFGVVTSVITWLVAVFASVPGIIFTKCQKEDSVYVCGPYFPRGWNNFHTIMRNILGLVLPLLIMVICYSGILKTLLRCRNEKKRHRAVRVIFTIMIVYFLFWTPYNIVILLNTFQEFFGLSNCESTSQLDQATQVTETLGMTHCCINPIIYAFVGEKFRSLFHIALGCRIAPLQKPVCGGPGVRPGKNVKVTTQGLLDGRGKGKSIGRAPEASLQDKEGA
C-X-C chemokine receptor type 2 (Homo sapiens), sequence (P25025 whole entry): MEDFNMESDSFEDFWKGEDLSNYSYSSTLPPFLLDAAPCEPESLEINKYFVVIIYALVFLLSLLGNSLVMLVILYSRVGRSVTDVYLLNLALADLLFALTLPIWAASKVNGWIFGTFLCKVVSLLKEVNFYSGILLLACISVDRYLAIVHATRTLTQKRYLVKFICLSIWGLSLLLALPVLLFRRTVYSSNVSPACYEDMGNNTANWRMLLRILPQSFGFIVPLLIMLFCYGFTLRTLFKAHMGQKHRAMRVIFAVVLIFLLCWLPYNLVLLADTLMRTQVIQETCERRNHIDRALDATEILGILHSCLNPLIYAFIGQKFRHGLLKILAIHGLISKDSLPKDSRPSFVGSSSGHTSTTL
C-C chemokine receptor type 4 (Homo sapiens), sequence (P51679 whole entry): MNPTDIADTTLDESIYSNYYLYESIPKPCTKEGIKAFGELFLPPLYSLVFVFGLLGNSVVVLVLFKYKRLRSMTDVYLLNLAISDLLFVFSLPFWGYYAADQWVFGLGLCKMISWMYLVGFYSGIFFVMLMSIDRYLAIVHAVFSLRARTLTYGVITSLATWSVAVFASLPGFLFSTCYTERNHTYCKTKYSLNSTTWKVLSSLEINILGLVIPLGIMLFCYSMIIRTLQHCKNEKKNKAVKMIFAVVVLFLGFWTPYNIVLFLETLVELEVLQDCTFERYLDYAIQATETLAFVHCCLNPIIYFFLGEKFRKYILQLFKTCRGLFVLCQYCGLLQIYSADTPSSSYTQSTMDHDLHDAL
Muscarinic acetylcholine receptor M1 (Homo sapiens), sequence (P11229 whole entry): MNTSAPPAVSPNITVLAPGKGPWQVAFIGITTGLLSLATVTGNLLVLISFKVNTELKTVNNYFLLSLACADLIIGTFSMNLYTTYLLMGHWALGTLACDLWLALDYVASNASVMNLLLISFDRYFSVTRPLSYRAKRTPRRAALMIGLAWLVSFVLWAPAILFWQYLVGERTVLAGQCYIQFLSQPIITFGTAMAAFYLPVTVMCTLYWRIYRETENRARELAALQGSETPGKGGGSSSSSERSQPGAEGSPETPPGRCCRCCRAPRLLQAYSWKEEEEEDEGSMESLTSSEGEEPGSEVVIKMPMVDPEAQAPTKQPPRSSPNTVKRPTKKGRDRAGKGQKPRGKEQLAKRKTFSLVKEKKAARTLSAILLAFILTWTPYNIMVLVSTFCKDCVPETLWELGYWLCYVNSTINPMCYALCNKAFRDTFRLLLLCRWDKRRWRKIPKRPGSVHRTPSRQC
C-X-C chemokine receptor type 5 (Homo sapiens), sequence (P32302 whole entry): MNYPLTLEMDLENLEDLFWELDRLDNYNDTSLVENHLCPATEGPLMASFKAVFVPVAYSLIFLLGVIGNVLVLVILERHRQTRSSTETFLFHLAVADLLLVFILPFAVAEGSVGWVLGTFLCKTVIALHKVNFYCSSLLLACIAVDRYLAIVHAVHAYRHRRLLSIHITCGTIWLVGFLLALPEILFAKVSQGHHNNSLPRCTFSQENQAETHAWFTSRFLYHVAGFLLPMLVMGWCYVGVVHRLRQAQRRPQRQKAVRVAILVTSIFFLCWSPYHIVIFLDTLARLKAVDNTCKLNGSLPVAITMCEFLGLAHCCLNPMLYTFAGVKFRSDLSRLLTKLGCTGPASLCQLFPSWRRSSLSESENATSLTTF

Cc1cc(C(=O)N2CCc3c(sc(NCc4ccccc4)c3C#N)C2)[nH]n1
inhibition [1]: -2.1%
Activity [2]: 0.8%
Activity [3]: -4%
dose excreted [4]: 0%
Activity [5]: 0.3%
Kp at 2 h [6]: 0.14
inhibition [7]: 71.2%
inhibition [8]: -0.1%
AUC(0-t) [9]: 4090 ng·h/mL
Kp at 2 h [10]: 0.13
inhibition [11]: 36.2%
MRT [12]: 1.31 h
inhibition [13]: 10.3%
inhibition [14]: 5.8%
Activity [15]: -2.7%
inhibition [16]: -0.6%
Activity [17]: 0.3%
Activity [18]: -2.3%
inhibition [19]: 9.2%
inhibition [20]: 3.9%
concentration at 8 h [21]: 80 ng/mL
AUC(0-inf) [22]: 9270 ng·h/mL
Activity [23]: -1.4%
concentration at 2 h [24]: 1240 ng/mL
Activity (Rattus norvegicus [25]): 60%
Tmax [26]: 1.2 h
inhibition [27]: -4.6%
Activity [28]: -2.9%
AUC(0-t) [29]: 9060 ng·h/mL
inhibition [30]: -2.8%
concentration at 2 h [31]: 138 ng/mL
Vd [32]: 1.66 L/kg
Activity [33]: -3.1%
activity at 20 min, 10 µM (CYP3A4): 20.5%
half-life [34]: 1.48 h
dose excreted [35]: 0%
activity at 20 min, 10 µM (CYP2C19): 14.2%
concentration at 2 h [36]: 1190 ng/mL
Activity [37]: -0.9%
Cmax [38]: 1410 ng/mL
activity at 20 min, 10 µM (CYP2C9): 6.77%
Activity (Rattus norvegicus [39]): 90%
